Assay results reported in US20070191447A1, “Novel heterocyclic compound” (priority 2004, published 2007).

What follows are compounds tested against T1, benzodiazepine ω3 receptor (Rattus norvegicus, UniProt P16257) (assay: Benzodiazepine ω3 receptor binding inhibition test ([3H]-PK-11195, rat kidney membrane fraction)). Details: 1 h, compound final concentration 100 nM, [3H]-PK-11195 1 nM, 4° C., one hour, read-out: [3H]-PK-11195 Binding inhibitory rate (%).
T1 construct: The kidney membrane fraction (ω3) was prepared as follows; from tissue; host or cells: rat (SD, male) kidney membrane fraction
Protocol: Experiment 1: Benzodiazepine ω3 receptor and benzodiazepine ω1, ω2 receptors binding inhibition test
The benzodiazepine ω3 receptor binding assay was carried out according to the method disclosed in the literature (Mol. Phamacol., 34, 800-805, 1988), and the benzodiazepine ω1, ω2 receptor binding assays were carried out according to the method disclosed in the literature (Neurophamacol., 34, 1169-1175, 1995), respectively.
SD male rats (Japan Charles River) were decapitated, and the kidney and the cerebral cortex were collected. The kidney membrane fraction (ω3) was prepared as follows. The kidney was homogenized with ice-cold 50 mM Tris-HCl buffer (pH 7.6) of about 5-times volume of the wet tissue weight, and the homogenate was centrifuged at 4° C. for 10 minutes at 20,000 g. The pellets thus obtained were suspended again, and centrifuged at 4° C. for 10 minutes at 20,000 g. These resuspension and centrifugation procedures were repeated once more, and the obtained pellets were diluted in a 50 mM Tris-HCl buffer (pH 7.6) into a concentration of 0.1 mg of protein per one assay of the receptor binding test. The cerebral cortex membrane fraction (ω1 and ω2) was prepared as follows. The cerebral cortex was homogenized with ice-cold potassium phosphate buffer (200 mM KCl, 20 mM KOH, 20 mM KH2PO4, pH 7.4) of 15-times volume of the wet tissue weight, and the homogenate was centrifuged at 4° C. for 15 minutes at 32,500 g. The obtained pellets were suspended again and centrifuged at 4° C. for 15 minutes at 32,500 g. These resuspension and centrifugation procedures were repeated once more, and the obtained pellets were diluted in the potassium phosphate buffer into a concentration of 0.1 mg of protein per one assay of the receptor binding test. Both of these membrane fractions were frozen and stored at −80° C.
As the [^3H]-labeled ligand, [^3H]-PK-11195 (for ω3; PerkinElmer) or [^3H]-Ro-15-1788 [Flumazenil] (for ω1 and ω2; PerkinElmer) was used. […] In order to obtain total binding in the binding inhibition assay, a 0.5% DMSO, the [^3H] labeled ligand (final concentration: 1 nM), and the membrane fraction were mixed (total volume: 1 mL), and the mixture was incubated at 4° C. (for ω3) or at 25° C. (for ω1 and ω2) for one hour. In order to obtain non-specific binding, the non-labeled ligand (final concentration: 10 μM) was added instead of 0.5% DMSO, and in order to study the binding affinity of the present compounds, a solution of the present compound (final concentration: 100 nM for ω3, or 10 μM for ω1 and ω2) in DMSO was added. After the one-hour incubation, the labeled ligand bound to the receptor was collected by filtration with suction through a 0.3% polyethyleneimine-treated GF/B filter using a cell harvester, and washed with ice-cold 50 mM Tris-HCl buffer (for ω3) or ice-cold potassium phosphate buffer (for ω1 and ω2) once. The radioactivity on the GF/B filter was measured with liquid scintillation counter (manufactured by Packard, Tri Carb 2700TR). The results were expressed by the inhibition rate (%) against the binding to the labeled ligand.

Compound	inhibition at 0.1 µM [%]
CCCN(CCC)C(=O)Cn1c(=O)n(C)c2ccc(-c3ccccc3)cc21 [Example 60]	100
CN(C(=O)Cn1c(=O)n2c3c(cccc31)CCC2)c1ccccc1 [Example 113, N-Methyl-2-(2-oxo-5,6-dihydro-4H-imidazo[4,5,1-ij]quinolin-1(2H)-yl)-N-phenylacetamide]	93
CC(=O)c1cc(Br)cc2c1oc(=O)n2CC(=O)N(C)c1ccccc1 [Example 389, 2-(7-Acetyl-5-bromo-2-oxo-1,3-benzoxazol-3(2H)-yl)-N-methyl-N-phenyl-acetamide]	97
CN(C(=O)C1CCc2cccc3c2n1c(=O)n3C)c1ccccc1 (stereo not drawn) [Example 142, N,1-Dimethyl-2-oxo-N-phenyl-1,2,5,6-tetrahydro-4H-imidazo[4,5,1-ij]quinoline-4-carboxamide]	83
CN(C(=O)Cn1c(=O)sc2c(Br)cccc21)c1ccccc1 [Example 56]	99
CN(C(=O)Cn1c(=O)oc2ccc(C(=O)c3ccccc3)cc21)c1ccccc1 [Example 373, 2-(5-Benzoyl-2-oxo-1,3-benzoxazol-3(2H) -yl)-N-methyl-N-phenyl-acetamide]	89
CN(C(=O)Cn1c(=O)n2c3c(cc(Oc4ccccc4)cc31)CCC2)c1ccccc1 [Example 136, N-Methyl-2-(2-oxo-8-phenoxy-5,6-dihydro-4H-imidazo[4,5,1-ij]quinolin-1(2H)-yl)-N-phenylacetamide]	95
CN(C(=O)Cn1c(=O)sc2ccc(-c3ccncc3)cc21)c1ccccc1 [Example 395, N-Methyl-2-(2-oxo-5-pyridin-4-yl-1,3-benzothiazol-3(2H)-yl)-N-phenyl-acetamide]	95
CN(C(=O)Cn1c(=O)n(C)c2cc(-c3ccccc3)ccc21)c1ccccc1 [Example 61]	100
CC(C(=O)N(C)c1ccccc1)n1c(=O)n2c3c(cc(Br)cc31)CCC2 (stereo not drawn) [Example 137, 2-(8-Bromo-2-oxo-5,6-dihydro-4H-imidazo[4,5,1-ij]quinolin-1(2H)-yl)-N-methyl-N-phenylpropanamide]	83
CN(C(=O)Cn1c(=O)sc2ccc(Br)cc21)c1ccccc1 [Example 55]	98
CC(C)n1c(=O)n(CC(=O)N(C)c2ccccc2)c2cc(-c3ccccc3)ccc21 [Example 401, 2-(3-Isopropyl-2-oxo-6-phenyl-2,3-dihydro-1H-benzimidazol-1-yl)-N-methyl-N-phenylacetamide]	88
